Data as given in patent US20240216369A1, “THE USE OF A SPLICING MODULATOR FOR A TREATMENT SLOWING PROGRESSION OF HUNTINGTON'S DISEASE” (Novartis AG, priority 2019, published 2024).

Experiments:
mHTT = test: Mutant and total HTT multiplex HTRF assay in Q48 HTT human embryonic stem cell line: mHTT; type: cell-based; settings: Q48 HTT hESC, 48 hours
Experimental: (§1) The multiplex assay is performed in human embryonic stem cells (hESCs) which have been derived by Genea Biocells from human blastocysts of HD donors. Cells are plated at a density of 10,000 cells/well into 384-well collagen coated plates and left to adhere for 24 hours, compounds 1 to 82 are then added to cells and incubated for 48 hours (37° C., 5% CO2), cells are then lysed and the contents split into a black 384-well plate.
(§2) The black plates have a combination of HTRF labeled monoclonal antibodies added which recognize discrete areas of the HTT protein, the 2B7-Tb “donor” antibody (0.2 ng/well) recognizes a sequence at the N-terminus of the protein, an MW1-Alexa488 “acceptor 1” antibody (30 ng/well) recognizes an area in the polyQ region, whereas a MAB2166-d2 “acceptor 2” antibody (6 ng/well) recognizes a sequence beyond the polyQ region. The 2B7 antibody was obtained from Coriell (CH02024), the MW1 antibody from Millipore (MABN2427), and the MAB2166 antibody from Millipore (1HU-4C8).
(§3) These detection reagents are incubated with the cell lysate at room temperature for 4-6 hours before having their fluorescence quantified at 615 nm (donor) and 535 nm and 665 nm (acceptor 1 and 2 respectively). The donor/acceptor ratio between these signals indicates the relative quantities of mHTT and tHTT proteins. As shown in the Table 1, compounds 1 to 82 as described therein and in Table 2, had the following pIC50 values.

tHTT = test: Mutant and total HTT multiplex HTRF assay in Q48 HTT human embryonic stem cell line: tHTT; type: cell-based; settings: Q48 HTT hESC, 48 hours
Experimental: as §1, §2, §3

| Compound | Rating (based on mHTT potency) (mHTT) | mHTT pIC50 (mHTT) | tHTT pIC50 (tHTT) |
| --- | --- | --- | --- |
| CN(c1ccc(-c2cc3cn(C)nc3cc2O)nn1)C1CC(C)(C)NC(C)(C)C1 [Compound 40, 2-methyl-5-(6-(methyl(2,2,6,6-tetramethylpiperidin-4-yl)amino)pyridazin-3-yl)-2H-indazol-6-ol] | *** (a pIC50 value between 6.5 and 7.0 is indicated by three stars (***)) | 6.927 | 6.994 |
| CN(c1ccc(-c2cc3ccccc3cc2O)nn1)C1CC(C)(C)NC(C)(C)C1 [Compound 41, 3-(6-(methyl(2,2,6,6-tetramethylpiperidin-4-yl)amino)pyridazin-3-yl)naphthalen-2-ol] | *** (a pIC50 value between 6.5 and 7.0 is indicated by three stars (***)) | 6.923 | 6.8125 |
| Cc1nc2cc(O)c(-c3ccc(N(C)C4CC(C)(C)NC(C)(C)C4)nn3)cc2nc1C [Compound 42, 2,3-dimethyl-7-(6-(methyl(2,2,6,6-tetramethylpiperidin-4-yl)amino)pyridazin-3-yl)quinoxalin-6-ol] | *** (a pIC50 value between 6.5 and 7.0 is indicated by three stars (***)) | 6.92 | 6.885 |
| CNc1ccn(-c2ccc(-c3nnc(N(C)C4CC(C)(C)NC(C)(C)C4)s3)c(O)c2)n1 [Compound 43, 2-(5-(methyl(2,2,6,6-tetramethylpiperidin-4-yl)amino)-1,3,4-thiadiazol-2-yl)-5-(3-(methylamino)-1H-pyrazol-1-yl)phenol] | *** (a pIC50 value between 6.5 and 7.0 is indicated by three stars (***)) | 6.917 | 6.852 |
| CCN1CCC(c2cn3c(=O)cc(-c4ccc5nn(C)cc5c4)nc3c(C)n2)CC1 [Compound 44, 7-(1-ethylpiperidin-4-yl)-9-methyl-2-(2-methyl-2H-indazol-5-yl)-4H-pyrazino[1,2-a]pyrimidin-4-one] | *** (a pIC50 value between 6.5 and 7.0 is indicated by three stars (***)) | 6.869 | 6.7695 |
| CN(c1nnc(-c2c(F)cc(-c3cn[nH]c3)cc2F)s1)C1CC(C)(C)NC(C)(C)C1 [Compound 45, 5-(2,6-difluoro-4-(1H-pyrazol-4-yl)phenyl)-N-methyl-N-(2,2,6,6-tetramethylpiperidin-4-yl)-1,3,4-thiadiazol-2-amine] | *** (a pIC50 value between 6.5 and 7.0 is indicated by three stars (***)) | 6.861 | 6.7715 |
| Cc1cnc2cc(O)c(-c3ccc(N(C)C4CC(C)(C)NC(C)(C)C4)nn3)cc2n1 [Compound 46, 2-methyl-7-(6-(methyl(2,2,6,6-tetramethylpiperidin-4-yl)amino)pyridazin-3-yl)quinoxalin-6-ol] | *** (a pIC50 value between 6.5 and 7.0 is indicated by three stars (***)) | 6.8485 | 6.778 |
| Cc1ccc2cc(-c3ccc(N(C)C4CC(C)(C)NC(C)(C)C4)nn3)c(O)cc2n1 [Compound 47, 2-methyl-6-(6-(methyl(2,2,6,6-tetramethylpiperidin-4-yl)amino)pyridazin-3-yl)quinolin-7-ol] | *** (a pIC50 value between 6.5 and 7.0 is indicated by three stars (***)) | 6.8415 | 6.92 |
| CC1(C)CC(Nc2ccc(-c3cc4cc(C#N)ccc4s3)nn2)CC(C)(C)N1 [Compound 48, 2-(6-(2,2,6,6-tetramethylpiperidin-4-ylamino)pyridazin-3-yl)benzo[b]thiophene-5-carbonitrile] | *** (a pIC50 value between 6.5 and 7.0 is indicated by three stars (***)) | 6.822 | 6.9 |
| CN(c1nnc(-c2ccc(-c3ccn(C)c(=O)c3)cc2O)s1)C1CC(C)(C)NC(C)(C)C1 [Compound 49, 4-(3-hydroxy-4-(5-(methyl(2,2,6,6-tetramethylpiperidin-4-yl)amino)-1,3,4-thiadiazol-2-yl)phenyl)-1-methylpyridin-2(1H)-one] | *** (a pIC50 value between 6.5 and 7.0 is indicated by three stars (***)) | 6.819 | 6.6665 |
| COc1ccnc2cc(-c3ccc(N(C)C4CC(C)(C)NC(C)(C)C4)nn3)c(O)cc12 [Compound 50, 4-methoxy-7-(6-(methyl(2,2,6,6-tetramethylpiperidin-4-yl)amino)pyridazin-3-yl)quinolin-6-ol] | *** (a pIC50 value between 6.5 and 7.0 is indicated by three stars (***)) | 6.8055 | 6.7835 |
| CN(c1ccc(-c2cc3c(C(N)=O)nccc3cc2O)nn1)C1CC(C)(C)NC(C)(C)C1 [Compound 51, 6-hydroxy-7-(6-(methyl(2,2,6,6-tetramethylpiperidin-4-yl)amino)pyridazin-3-yl)isoquinoline-1-carboxamide] | *** (a pIC50 value between 6.5 and 7.0 is indicated by three stars (***)) | 6.801 | 6.779 |
| CN(c1ccc(-c2cc3ccncc3cc2O)nn1)C1CC(C)(C)NC(C)(C)C1 [Compound 52, 6-(6-(methyl(2,2,6,6-tetramethylpiperidin-4-yl)amino)pyridazin-3-yl)isoquinolin-7-ol] | *** (a pIC50 value between 6.5 and 7.0 is indicated by three stars (***)) | 6.7625 | 6.6455 |
| Cc1cc(C2CC2)c2cc(-c3ccc(N(C)C4CC(C)(C)NC(C)(C)C4)nn3)c(O)cc2n1 [Compound 53, 4-cyclopropyl-2-methyl-6-(6-(methyl(2,2,6,6-tetramethylpiperidin-4-yl)amino)pyridazin-3-yl)quinolin-7-ol] | *** (a pIC50 value between 6.5 and 7.0 is indicated by three stars (***)) | 6.746 | 6.7095 |
| Cc1nc2cc(-c3ccc(N(C)C4CC(C)(C)NC(C)(C)C4)nn3)c(O)cc2[nH]1 [Compound 54, 2-methyl-5-(6-(methyl(2,2,6,6-tetramethylpiperidin-4-yl)amino)pyridazin-3-yl)-1H-benzo[d]imidazol-6-ol] | *** (a pIC50 value between 6.5 and 7.0 is indicated by three stars (***)) | 6.728 | 6.753 |
| CN(c1ccc(-c2cc3c(=O)nc[nH]c3cc2O)nn1)C1CC(C)(C)NC(C)(C)C1 [Compound 55, 7-hydroxy-6-(6-(methyl(2,2,6,6-tetramethylpiperidin-4-yl)amino)pyridazin-3-yl)quinazolin-4(1H)-one] | *** (a pIC50 value between 6.5 and 7.0 is indicated by three stars (***)) | 6.71 | 6.7485 |
| CCc1cnc2cc(O)c(-c3ccc(N(C)C4CC(C)(C)NC(C)(C)C4)nn3)cc2c1 [Compound 56, 3-ethyl-6-(6-(methyl(2,2,6,6-tetramethylpiperidin-4-yl)amino)pyridazin-3-yl)quinolin-7-ol] | *** (a pIC50 value between 6.5 and 7.0 is indicated by three stars (***)) | 6.709 | 6.709 |
